Literature values in patent publication US20100143470A1, “CONTROLLED RELEASE PHARMACEUTICAL COMPOSITION CONTAINING THIAZIDES AND ANGIOTENSIN-II-RECEPTOR BLOCKERS” (HANALL PHARMACEUTICAL COMPANY, LTD, priority 2006, published 2010).

Experiments:
[1] = orally administered for hypertension therapy

Q: What does the source list for `NS(=O)(=O)c1cc2c(cc1Cl)NCNS2(=O)=O` [Hydrochlorothiazide, 6-chloro-3,4-dihydro-2H-1,2,4-benzothiadiazine-7-sulfonamide-1,1-dioxide]?
A: diuretic effect is sustained [1]: 6 to 12 h; blood half-time (in vivo): 5.6 to 14.8 h

Q: What does the source list for `CCCCc1nc(Cl)c(CO)n1Cc1ccc(-c2ccccc2-c2nn[nH]n2)cc1` [losartan]?
A: time to reach the highest blood concentration (after absorption from the small intestine): ≤ 1 h; blood elimination rate (in vivo): 600 mL/min
